{
  "source": "patent US10709709B2",
  "about": "“Substituted carbonucleoside derivatives useful as anticancer agents” (Pfizer Inc., priority 2016, dated 2020)",
  "data": [
    {"biological_target": "PRMT5/MEP50 protein complex (Homo sapiens (Human), UniProt O14744)", "sequence (O14744 other isoform, or with tags, fused parts or gaps)": "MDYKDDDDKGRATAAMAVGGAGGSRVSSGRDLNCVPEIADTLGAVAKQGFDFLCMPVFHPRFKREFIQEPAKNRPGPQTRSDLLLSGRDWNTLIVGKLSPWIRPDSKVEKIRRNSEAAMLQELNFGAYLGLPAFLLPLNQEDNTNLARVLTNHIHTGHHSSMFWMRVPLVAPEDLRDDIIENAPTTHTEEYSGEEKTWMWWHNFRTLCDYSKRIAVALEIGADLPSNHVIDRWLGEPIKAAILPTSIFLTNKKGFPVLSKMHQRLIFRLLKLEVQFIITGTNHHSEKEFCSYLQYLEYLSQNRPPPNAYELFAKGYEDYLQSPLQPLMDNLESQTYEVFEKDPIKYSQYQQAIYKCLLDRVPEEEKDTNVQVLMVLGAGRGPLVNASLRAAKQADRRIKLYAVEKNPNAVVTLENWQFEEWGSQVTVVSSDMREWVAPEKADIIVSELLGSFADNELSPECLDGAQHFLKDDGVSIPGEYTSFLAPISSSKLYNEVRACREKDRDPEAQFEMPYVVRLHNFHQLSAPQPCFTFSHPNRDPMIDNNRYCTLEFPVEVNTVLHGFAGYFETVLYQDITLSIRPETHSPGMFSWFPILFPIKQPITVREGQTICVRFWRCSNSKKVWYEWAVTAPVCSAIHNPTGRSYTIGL", "sequence (Q9BQA1 whole entry partner)": "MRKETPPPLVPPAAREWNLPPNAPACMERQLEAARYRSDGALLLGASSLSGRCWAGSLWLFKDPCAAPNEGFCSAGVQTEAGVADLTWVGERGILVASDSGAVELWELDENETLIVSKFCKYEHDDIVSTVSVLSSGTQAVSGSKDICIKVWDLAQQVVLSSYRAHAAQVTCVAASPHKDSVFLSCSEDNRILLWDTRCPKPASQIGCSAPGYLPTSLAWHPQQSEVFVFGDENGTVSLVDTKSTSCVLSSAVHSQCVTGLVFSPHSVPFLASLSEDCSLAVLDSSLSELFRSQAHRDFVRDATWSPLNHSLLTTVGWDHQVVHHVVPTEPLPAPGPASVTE", "assay": "PRMT5 biochemical assay (3H-SAM methylation of H4(1-21) peptide, filter plate scintillation)", "conditions": "10 nM PRMT5/MEP50 complex, 200 nM H4(1-21) peptide, 1 uM SAM, 25 minute incubation at room temperature", "experimental": "Biochemical Assay Methods\nCompounds were solubilized in DMSO and serially diluted, using 3-fold dilutions, into 100% DMSO at a concentration 50-fold greater than the desired assay concentration. Following dilution, 1 ul was added to an empty 96-well microtiter plate. PRMT5/MEP50 protein complex was combined with H4(1-21) peptide ([…]) in PRMT5 assay buffer (50 mM Tris pH 8.5, 50 mM NaCl, 5 mM MgCl2, 1 mM EDTA, 1 mM TCEP) and 44 ul was added to the microtiter plate containing compound. S-Adenosyl-L-methionine (SAM) was prepared by combining ^3H labelled SAM with unlabelled SAM in PRMT5 assay buffer such that the final SAM concentration was 10 uM and the specific activity was 0.2 uCi/ul. The reaction was initiated by adding 5 ul of SAM stock to the microtiter plate. The final reaction conditions were 10 nM PRMT5/MEP50 complex, 200 nM peptide and 1 uM SAM. Following a 25 minute incubation at room temperature, the reaction was stopped with the addition of 100 uL of 20% TCA. The 3H-peptide product was captured using a 96-well filter plate (MSIPN4B, Millipore) and washed 5 times with PBS buffer. Scintillation fluid (100 ul) was added to the dried filter plate and counted in a liquid scintillation counter. IC50 values were determined by fitting the data to the standard 4-parameter dose response equation using Pfizer proprietary software.\nResults for the biochemical assay of examples are summarized in Table 1, shown as IC50 values in μM.", "units": {"IC50": "nM"}, "values": [
      {"smiles": "Cc1ncc(O[C@H]2C[C@@H](n3ccc4c(C)ncnc43)[C@H](O)[C@@H]2O)c2c1CCNC2", "note": "[Example 96, (1S,2S,3S,5R)-3-((1-methyl-5,6,7,8-tetrahydro-2,6-naphthyridin-4-yl)oxy)-5-(4-methyl-7H-pyrrolo[2,3-d]pyrimidin-7-yl)cyclopentane-1,2-diol]", "IC50": 19},
      {"smiles": "Cc1ncnc2c1ccn2[C@H]1C[C@@H](Oc2ccccc2CN)[C@H](O)[C@@H]1O", "note": "[Example 63, (1R,2R,3R,5S)-3-(2-(aminomethyl)phenoxy)-5-(4-methyl-7H-pyrrolo[2,3-d]pyrimidin-7-yl)cyclopentane-1,2-diol]", "IC50": 1060},
      {"smiles": "Cc1ncnc2c1ccn2[C@@H]1C[C@H](Oc2cc(F)c(F)cc2OCCN)[C@@H](O)[C@H]1O", "note": "[Example 152, (1S,2S,3S,5R)-3-(2-(2-aminoethoxy)-4,5-difluorophenoxy)-5-(4-methyl-7H-pyrrolo[2,3-d]pyrimidin-7-yl)cyclopentane-1,2-diol]", "IC50": 8},
      {"smiles": "CCOc1cc(O[C@H]2C[C@@H](n3ccc4c(C)ncnc43)[C@H](O)[C@@H]2O)c2c(c1F)CCNC2", "note": "[Example 199, (1S,2S,3S,5R)-3-((6-ethoxy-5-fluoro-1,2,3,4-tetrahydroisoquinolin-8-yl)oxy)-5-(4-methyl-7H-pyrrolo[2,3-d]pyrimidin-7-yl)cyclopentane-1,2-diol]", "IC50": 91},
      {"smiles": "CN1CCc2c(cccc2O[C@H]2C[C@@H](n3cc(F)c4c(N)ncnc43)[C@H](O)[C@@H]2O)C1", "note": "[Example 116, (1S,2S,3R,5S)-3-(4-amino-5-fluoro-7H-pyrrolo[2,3-d]pyrimidin-7-yl)-5-((2-methyl-1,2,3,4-tetrahydroisoquinolin-5-yl)oxy)cyclopentane-1,2-diol]", "IC50": 257},
      {"smiles": "Cc1ncnc2c1ccn2[C@@H]1C[C@H](C(C)(C)O)[C@@H](O)[C@H]1O", "note": "[Example 18, (1S,2R,3S,5R)-3-(2-hydroxypropan-2-yl)-5-(4-methyl-7H-pyrrolo[2,3-d]pyrimidin-7-yl)cyclopentane-1,2-diol]", "IC50": 3700},
      {"smiles": "Cc1nc(N)nc(N(C)[C@@H]2C[C@H]([C@@H](O)c3ccc(F)c(F)c3)[C@@H](O)[C@H]2O)n1", "note": "[Example 42, (1R,2S,3R,5R)-3-[(4-amino-6-methyl-1,3,5-triazin-2-yl)(methyl)amino]-5-[(R)-(3,4-difluorophenyl) (hydroxy)methyl]cyclopentane-1,2-diol]", "IC50": 1390},
      {"smiles": "Nc1ncnc2c1ccn2[C@@H]1C[C@H]([C@@H](O)c2ccc(Cl)c(F)c2)[C@@H](O)[C@H]1O", "note": "[Example 24, (1R,2S,3R,5R)-3-(4-amino-7H-pyrrolo[2,3-d]pyrimidin-7-yl)-5-((R)-(4-chloro-3-fluorophenyl)(hydroxy)methyl)cyclopentane-1,2-diol]", "IC50": 71},
      {"smiles": "O[C@@H]1[C@H](O)[C@@H]([C@@H](O)c2ccc(F)c(F)c2)C[C@H]1Nc1ncnc2[nH]ccc12", "note": "[Example 28, (1S,2R,3R,5R)-3-[(R)-(3,4-difluorophenyl)(hydroxy)methyl]-5-(7H-pyrrolo[2,3-d]pyrimidin-4-ylamino)cyclopentane-1,2-diol]", "IC50": 5770},
      {"smiles": "Cc1ncnc2c1ccn2[C@@H]1C[C@H](Oc2ccc(F)cc2CN(C)C)[C@@H](O)[C@H]1O", "note": "[Example 71, (1S,2S,3S,5R)-3-(2-((dimethylamino)methyl)-4-fluorophenoxy)-5-(4-methyl-7H-pyrrolo[2,3-d]pyrimidin-7-yl)cyclopentane-1,2-diol]", "IC50": 69},
      {"smiles": "Cc1ncnc2c1ccn2[C@@H]1C[C@H](Oc2cccc3c2CC(N)CO3)[C@@H](O)[C@H]1O", "note": "(single isomer, unassigned) [Example 189]", "IC50": 604},
      {"smiles": "Cc1ncnc2c1ccn2C1C[C@H](Oc2cccc3c2CNC3)[C@@H](O)[C@H]1O", "note": "(stereo partly drawn) [Example 79, (1S,2S,3S,5R)-3-(2,3-dihydro-1H-isoindol-4-yloxy)-5-(4-methyl-7H-pyrrolo[2;3-d]pyrimidin-7-yl)cyclopentane-1,2-diol]", "IC50": 83},
      {"smiles": "Cc1ncnc2c1ccn2[C@@H]1C[C@H](Oc2cc(C(C)(C)O)cc3c2CNCC3)[C@@H](O)[C@H]1O", "note": "[Example 97, (1S,2S,3S,5R)-3-((6-(2-hydroxypropan-2-yl)-1,2,3,4-tetrahydroisoquinolin-8-yl)oxy)-5-(4-methyl-7H-pyrrolo[2,3-d]pyrimidin-7-yl)cyclopentane-1,2-diol]", "IC50": 65},
      {"smiles": "Cc1ncnc2c1ccn2[C@@H]1C[C@H](Oc2ccc(F)cc2O)[C@@H](O)[C@H]1O", "note": "[Example 136, (1S,2S,3S,5R)-3-(4-fluoro-2-hydroxyphenoxy)-5-(4-methyl-7H-pyrrolo[2,3-d]pyrimidin-7-yl)cyclopentane-1,2-diol]", "IC50": 11100},
      {"smiles": "Cc1ncnc2c1ccn2[C@@H]1C[C@H](Oc2cccc3c2C(N)CCC3)[C@@H](O)[C@H]1O", "note": "(single isomer, unassigned) [Example 187]", "IC50": 971},
      {"smiles": "Cc1ncnc2c1ccn2[C@@H]1C[C@H](Oc2cccc3c2C(=O)NCCO3)[C@@H](O)[C@H]1O", "note": "[Example 163, 6-(((1S,2S,3S,4R)-2,3-dihydroxy-4-(4-methyl-7H-pyrrolo[2,3-d]pyrimidin-7-yl)cyclopentyl)oxy)-3,4-dihydrobenzo[f][1,4]oxazepin-5(2H)-one]", "IC50": "> 200000"},
      {"smiles": "Cc1ncnc2c1ccn2[C@@H]1C[C@H](Oc2cccc(C(F)(F)F)c2CN)[C@@H](O)[C@H]1O", "note": "[Example 144, (1S,2S,3S,5R)-3-(2-(aminomethyl)-3-(trifluoromethyl)phenoxy)-5-(4-methyl-7H-pyrrolo[2,3-d]pyrimidin-7-yl)cyclopentane-1,2-diol]", "IC50": 77},
      {"smiles": "Cc1ncnc2c1ccn2[C@@H]1C[C@H]([C@@H](O)c2cccc(Cl)c2)[C@@H](O)[C@H]1O", "note": "[Example 8, (1S,2R,3R,5R)-3-[(R)-(3-chlorophenyl) (hydroxy)methyl]-5-(4-methyl-7H-pyrrolo[2,3-d]pyrimidin-7-yl)cyclopentane-1,2-diol]", "IC50": 3390},
      {"smiles": "Cc1ncnc2c1ccn2[C@H]1C[C@@H](Oc2ccc(F)cc2CN)[C@H](O)[C@@H]1O", "note": "[Example 67, (1R,2R,3R,5S)-3-(2-(aminomethyl)-4-fluorophenoxy)-5-(4-methyl-7H-pyrrolo[2,3-d]pyrimidin-7-yl)cyclopentane-1,2-diol]", "IC50": "> 200000"},
      {"smiles": "Cc1ncnc2c1ccn2[C@@H]1C[C@H](Oc2ccc(F)c(F)c2CN)[C@@H](O)[C@H]1O", "note": "[Example 145, (1S,2S,3S,5R)-3-(2-(aminomethyl)-3,4-difluorophenoxy)-5-(4-methyl-7H-pyrrolo[2,3-d]pyrimidin-7-yl)cyclopentane-1,2-diol]", "IC50": 11},
      {"smiles": "Cc1ncnc2c1ccn2[C@@H]1C[C@H](Oc2cccc3c2CN(C)CC3)[C@@H](O)[C@H]1O", "note": "[Example 83, (1S,2S,3S,5R)-3-((2-methyl-1,2,3,4-tetrahydroisoquinolin-8-yl)oxy)-5-(4-methyl-7H-pyrrolo[2,3-d]pyrimidin-7-yl)cyclopentane-1,2-diol]", "IC50": 20},
      {"smiles": "CN(c1ccncn1)[C@@H]1C[C@H]([C@H](O)c2ccc(F)c(F)c2)[C@@H](O)[C@H]1O", "note": "[Example 31, (1S,2R,3R,5R)-3-[(S)-(3,4-difluorophenyl)(hydroxy)methyl]-5-[methyl(pyrimidin-4-yl)amino]cyclopentane-1,2-diol]", "IC50": 466},
      {"smiles": "Cc1ncnc(N(C)[C@@H]2C[C@H]([C@H](O)c3ccc(F)c(F)c3)[C@@H](O)[C@H]2O)n1", "note": "[Example 46, (1S,2R,3R,5R)-3-[(S)-(3,4-difluorophenyl)(hydroxy)methyl]-5-[methyl(4-methyl-1,3,5-triazin-2-yl)amino]cyclopentane-1,2-diol]", "IC50": 297},
      {"smiles": "Cc1ncnc2c1ccn2[C@@H]1C[C@H](Oc2ccc(F)cc2CO)[C@@H](O)[C@H]1O", "note": "[Example 135, (1S,2S,3S,5R)-3-(4-fluoro-2-(hydroxymethyl)phenoxy)-5-(4-methyl-7H-pyrrolo[2,3-d]pyrimidin-7-yl)cyclopentane-1,2-diol]", "IC50": 10200},
      {"smiles": "CO[C@H]1C[C@@H](n2ccc3c(C)ncnc32)[C@H](O)[C@@H]1O", "note": "(racemic) [Example 59, (+/−)-(1S,2S,3S,5R)-3-methoxy-5-(4-methyl-7H-pyrrolo[2,3-d]pyrimidin-7-yl)cyclopentane-1,2-diol]", "IC50": 5740},
      {"smiles": "CC(F)(F)c1cc2c(c(O[C@H]3C[C@@H](n4cc(F)c5c(N)ncnc54)[C@H](O)[C@@H]3O)c1)CNCC2", "note": "[Example 112, (1S,2S,3R,5S)-3-(4-amino-5-fluoro-7H-pyrrolo[2,3-d]pyrimidin-7-yl)-5-((6-(1,1-difluoroethyl)-1,2,3,4-tetrahydroisoquinolin-8-yl)oxy)cyclopentane-1,2-diol]", "IC50": 4},
      {"smiles": "Cc1ncnc2c1ccn2[C@@H]1C[C@H]([C@@H](O)c2ccc(F)cc2)[C@@H](O)[C@H]1O", "note": "[Example 10, (1S,2R,3R,5R)-3-[(R)-(4-fluorophenyl) (hydroxy)methyl]-5-(4-methyl-7H-pyrrolo[2,3-d]pyrimidin-7-yl)cyclopentane-1,2-diol]", "IC50": 941},
      {"smiles": "Cc1ncnc2c1ccn2[C@H]1C[C@H](Oc2cccc3c2C(=O)NCC3)[C@@H](O)[C@H]1O", "note": "[Example 76, 8-(((1S,2S,3S,4S)-2,3-dihydroxy-4-(4-methyl-7H-pyrrolo[2,3-d]pyrimidin-7-yl)cyclopentyl)oxy)-3,4-dihydroisoquinolin-1(2H)-one]", "IC50": 144000}
    ]}
  ]
}
